The source of these data is ChEMBL document CHEMBL1201862, “PubChem BioAssay data set” (2004).

Some test systems named below: NCI-H460; OVCAR-8; RXF 393; DU-145; Malme-3M; SF-268; A549; OVCAR-5; HOP-92; ACHN; MDA-N; SNB-75; PC-3; SF-295; OVCAR-4; NCI/ADR-RES; UACC-257; UO-31; A498; CCRF-CEM.
Holding throughout (test): NCI tumour cell line growth inhibition, 48 h

Structures are written as SMILES.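 Values below derive from 48-hour exposures of cells grown in 96-well plates, with endpoints linearly interpolated between the two concentrations bracketing the appropriate inhibition level. GI50 = concentration required for 50% inhibition of growth.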 The source made the active and inactive calls. No stated cut-off is given here; in the data, active = GI50 up to about 1.1 µM and inactive = higher.

`C(=NCCN1CCOCC1)=NC1CCCCC1`: the GI50 with NCI-H460, in the experiment on OVCAR-8, with RXF 393, in the experiment with DU-145, in the experiment on Malme-3M and with SF-268 was > 100 µM (inactive) each time. Further, the GI50 with A549, in the experiment on OVCAR-5, in the experiment with HOP-92, in the experiment on ACHN, with MDA-N and in the experiment with SNB-75 was > 100 µM (inactive) throughout. Besides, the GI50 in the experiment with PC-3, with SF-295, with OVCAR-4, with NCI/ADR-RES, in the experiment on UACC-257 and in the experiment on UO-31 was > 100 µM (inactive) throughout. Moreover, the GI50 with A498 was > 100 µM (inactive).

For the molecule `N#CCCN(CCC#N)c1ccc(/C=C2\N=C(c3ccccc3)N(c3ccccc3)C2=O)cc1`, the GI50 with NCI-H460 is 2.1 µM (inactive); with OVCAR-8, > 100 µM (inactive); in the experiment with RXF 393, > 100 µM (inactive); in the experiment on DU-145, > 100 µM (inactive); in the experiment with Malme-3M, > 100 µM (inactive); in the experiment with A549 it was > 100 µM (inactive). Moreover, the GI50 is > 100 µM (inactive) in the experiment on OVCAR-5; 2.26 µM (inactive) in the experiment on CCRF-CEM; 5.19 µM (inactive) in the experiment on HOP-92; > 100 µM (inactive) in the experiment on ACHN; > 100 µM (inactive) in the experiment with MDA-N; 17 µM (inactive) with PC-3. Further, the GI50 with SF-295, in the experiment with OVCAR-4, with NCI/ADR-RES, in the experiment with UACC-257, in the experiment with UO-31 and with A498 was > 100 µM (inactive) in each case.

For the molecule `Cc1ccc(S(=O)(=O)C2=C(C(C)C)N=NC2(C)C)cc1`, the GI50 is > 100 µM (inactive) with NCI-H460; > 100 µM (inactive) in the experiment with OVCAR-8; 66.5 µM (inactive) with RXF 393; 87.1 µM (inactive) in the experiment on DU-145; > 100 µM (inactive) with SF-268; 81.3 µM (inactive) with A549. Also, the GI50 in the experiment on OVCAR-5 was > 100 µM (inactive); in the experiment on HOP-92 it was 14.3 µM (inactive); in the experiment with ACHN, > 100 µM (inactive); with MDA-N, 80 µM (inactive); in the experiment with SNB-75, 95.3 µM (inactive); with PC-3, > 100 µM (inactive). Besides, the GI50 in the experiment with SF-295 is 71.8 µM (inactive); in the experiment with OVCAR-4 it was 72.9 µM (inactive); in the experiment with NCI/ADR-RES, 64.7 µM (inactive); in the experiment with UACC-257, > 100 µM (inactive); in the experiment with UO-31 it was > 100 µM (inactive); with A498, > 100 µM (inactive).

`CO/N=C(\C)c1cccc(Nc2c3ccccc3nc3occc23)c1`: the GI50 was 5.81 µM (inactive) with NCI-H460; 20 µM (inactive) with OVCAR-8; 0.0454 µM (active) with RXF 393; 18.9 µM (inactive) in the experiment on DU-145; 13.4 µM (inactive) with Malme-3M; 11.2 µM (inactive) in the experiment with SF-268. In addition, the GI50 in the experiment with A549 is 11.7 µM (inactive); with OVCAR-5 it was 20.5 µM (inactive); in the experiment with CCRF-CEM, 5.42 µM (inactive); in the experiment with HOP-92 it was 14.3 µM (inactive); in the experiment with MDA-N, 4.35 µM (inactive); with PC-3 it was 16.8 µM (inactive). The GI50 in the experiment on SF-295 is 5.46 µM (inactive); in the experiment on OVCAR-4 it was 4.75 µM (inactive); in the experiment on NCI/ADR-RES it was 4.12 µM (inactive); with UACC-257 it was 12.5 µM (inactive); in the experiment with UO-31, 12.8 µM (inactive); with A498, 19.3 µM (inactive).

On to `CCOC(=O)CCC(NC(=O)c1ccc(NCc2ccc3nc(OC)c(OC)nc3c2)c2ccccc12)C(=O)OCC` (stereo unspecified), for which the GI50 in the experiment with NCI-H460 is > 100 µM (inactive); in the experiment with OVCAR-8, 57.5 µM (inactive); with RXF 393 it was 31 µM (inactive); in the experiment on DU-145, > 100 µM (inactive); with Malme-3M it was > 100 µM (inactive); in the experiment on SF-268, 42.7 µM (inactive). For the same molecule, the GI50 in the experiment on A549 was > 100 µM (inactive); with OVCAR-5, > 100 µM (inactive); in the experiment with HOP-92, 16.2 µM (inactive); with ACHN it was 55.8 µM (inactive); in the experiment on MDA-N, > 100 µM (inactive); in the experiment on SNB-75, 38.8 µM (inactive). The GI50 in the experiment on PC-3 is 61.4 µM (inactive); in the experiment with SF-295, 36.2 µM (inactive); with OVCAR-4, 43.1 µM (inactive); in the experiment with NCI/ADR-RES it was > 100 µM (inactive); with UACC-257, > 100 µM (inactive); with UO-31, > 100 µM (inactive). Also, the GI50 with A498 is 61.8 µM (inactive).

Consider `CC(C)(C)n1c(=O)n2c(-c3ccccc3)c(-c3ccccc3)n2c1=O`, for which the GI50 in the experiment with NCI-H460 was > 100 µM (inactive); in the experiment with OVCAR-8, > 100 µM (inactive); in the experiment with RXF 393, 76 µM (inactive); with DU-145, > 100 µM (inactive); in the experiment on Malme-3M, > 100 µM (inactive); in the experiment on SF-268, > 100 µM (inactive). The GI50 was 56.9 µM (inactive) with A549; > 100 µM (inactive) in the experiment on OVCAR-5; > 100 µM (inactive) in the experiment with HOP-92; > 100 µM (inactive) with ACHN; > 100 µM (inactive) with MDA-N; > 100 µM (inactive) in the experiment with SNB-75. Besides, the GI50 is 44.7 µM (inactive) with PC-3; > 100 µM (inactive) in the experiment with SF-295; 72.6 µM (inactive) in the experiment with OVCAR-4; > 100 µM (inactive) in the experiment with NCI/ADR-RES; > 100 µM (inactive) with UACC-257; 12.5 µM (inactive) in the experiment with UO-31. The GI50 in the experiment on A498 was > 100 µM (inactive).

Turning to `O=[N+]([O-])/C=C/c1cccc(F)c1`, the GI50 in the experiment with NCI-H460 is 12.2 µM (inactive); in the experiment with OVCAR-8 it was 11.7 µM (inactive); with RXF 393, 2.02 µM (inactive); in the experiment with DU-145, 4.47 µM (inactive); with Malme-3M, 15.8 µM (inactive); in the experiment with SF-268, 12.4 µM (inactive). Also, the GI50 in the experiment on A549 was 4.16 µM (inactive); in the experiment on CCRF-CEM, 2.22 µM (inactive); in the experiment with HOP-92, 11.6 µM (inactive); in the experiment on ACHN it was 2.54 µM (inactive); in the experiment with MDA-N it was 2.64 µM (inactive); in the experiment with SNB-75, 13.7 µM (inactive). Further, the GI50 with PC-3 was 3.01 µM (inactive); in the experiment with SF-295, 11.4 µM (inactive); in the experiment on OVCAR-4, 3.75 µM (inactive); in the experiment on NCI/ADR-RES, 13.1 µM (inactive); in the experiment on UACC-257, 3.79 µM (inactive); with UO-31, 2.54 µM (inactive). Also, the GI50 in the experiment with A498 is 13.7 µM (inactive).

Turning to `[N-]=[N+]=Nc1ccccc1-c1ccccc1[N+](=O)[O-]`, the GI50 was 26.9 µM (inactive) in the experiment on NCI-H460; 73.3 µM (inactive) in the experiment with OVCAR-8; 86.1 µM (inactive) with RXF 393; 88.5 µM (inactive) in the experiment with DU-145; 26.4 µM (inactive) in the experiment on Malme-3M; 36.1 µM (inactive) with SF-268. The GI50 in the experiment with A549 is > 100 µM (inactive); in the experiment with OVCAR-5, > 100 µM (inactive); with HOP-92 it was 72.1 µM (inactive); in the experiment on ACHN, > 100 µM (inactive); in the experiment on MDA-N, 30.9 µM (inactive); with SNB-75, 50 µM (inactive). The GI50 in the experiment on PC-3 is 37.8 µM (inactive); with SF-295, 73.3 µM (inactive); in the experiment with OVCAR-4, 72.9 µM (inactive); in the experiment with NCI/ADR-RES, 29.9 µM (inactive); with UACC-257 it was 25.4 µM (inactive); in the experiment on UO-31 it was 72.8 µM (inactive). Further, the GI50 in the experiment on A498 is 45 µM (inactive).

Turning to `O=[N+]([O-])C(C=C(n1nnc2ccccc21)n1nnc2ccccc21)=C(n1nnc2ccccc21)n1nnc2ccccc21`, the GI50 in the experiment on NCI-H460, in the experiment on OVCAR-8, in the experiment with RXF 393, with DU-145, in the experiment with Malme-3M and with SF-268 was > 100 µM (inactive) throughout. Besides, the GI50 in the experiment with A549 was > 100 µM (inactive); in the experiment with OVCAR-5, > 100 µM (inactive); with CCRF-CEM it was 25 µM (inactive); with HOP-92 it was 84.1 µM (inactive); in the experiment on ACHN it was > 100 µM (inactive); with MDA-N it was > 100 µM (inactive). The GI50 is > 100 µM (inactive) in the experiment on PC-3; > 100 µM (inactive) in the experiment on SF-295; > 100 µM (inactive) with NCI/ADR-RES; 22.1 µM (inactive) with UO-31; > 100 µM (inactive) with A498.

Consider `Cc1c(C)c2ccc(O)cc2[nH]c1=O`, for which the GI50 with NCI-H460, in the experiment with OVCAR-8, in the experiment on RXF 393, in the experiment with DU-145, in the experiment with A549 and in the experiment with OVCAR-5 was > 100 µM (inactive) each time. Besides, the GI50 was > 100 µM (inactive) with CCRF-CEM; > 100 µM (inactive) in the experiment with HOP-92; > 100 µM (inactive) in the experiment with ACHN; > 100 µM (inactive) with MDA-N; 98.9 µM (inactive) in the experiment on SNB-75; > 100 µM (inactive) in the experiment on PC-3. Also, the GI50 with SF-295, with OVCAR-4, in the experiment on NCI/ADR-RES, with UACC-257, in the experiment on UO-31 and with A498 was > 100 µM (inactive) each time.

On to `COC(=O)C[C@](O)(CCCC(C)(C)O)C(=O)O[C@@H]1C(OC)=C[C@]23CCCN2CCc2cc4c(cc2[C@H]13)OCO4` [OMACETAXINE MEPESUCCINATE], for which the GI50 in the experiment on OVCAR-8 was 0.146 µM (active); in the experiment on RXF 393, 0.107 µM (active); with DU-145, 0.741 µM (active); in the experiment on Malme-3M, 0.0568 µM (active); in the experiment with SF-268 it was 0.149 µM (active); with OVCAR-5 it was 0.494 µM (active). Further, the GI50 is 0.0215 µM (active) in the experiment with CCRF-CEM; 0.0869 µM (active) in the experiment with HOP-92; 0.617 µM (active) in the experiment with ACHN; 2.42 µM (inactive) in the experiment on MDA-N; 0.102 µM (active) in the experiment with SNB-75; 3.01 µM (inactive) in the experiment on PC-3. Besides, the GI50 in the experiment on SF-295 was 0.152 µM (active); with OVCAR-4, 0.342 µM (active); with NCI/ADR-RES, 3.87 µM (inactive); with UO-31, 0.546 µM (active); with A498 it was 0.0395 µM (active).
